Experimental data as given in US20060128675A1, “Method for monitoring the effectiveness of teracycline in the treatment of asthma” (priority 2002, published 2006).

Columns and labels:
[1] = test system: IgE production by PBMC from non asthmatic subjects; assay: IgE production in vitro by anti-CD40 mAb + rhIL-4 stimulated PBMC from non asthmatic subjects; format: cell-based, human; settings: anti-CD40/rhIL-4
Protocol: (§1) PBMC were separated from blood on a Ficoll-Paque (Pharmacia, Piscataway, N.J.) gradient (density 1.077). The PBMC were carefully removed using a transfer pipette (VWR Scientific, San Francisco, Calif.). Cells were washed twice in RPMI-1640 medium (GIBCO/BRL, Grand Island, N.Y.), resuspended in RPMI (3 ml), and counted on a hemocytometer (Fisher Scientific, Springfield, N.J.). Viability was >98%, as judged by trypan blue exclusion.
Studies of IgE responses induced in vitro were carried out according to the method of Sampson and Buckley in J. Immunol 1981, 127: 829-834. […]
For the in vitro quantitative determination of IgE content in cell culture supernatants, solid phase sandwich enzyme linked immunosorbent assays (ELISAs) were performed using IgE ELISA Test Kits (Abexon Trend, Ramsey, Minn.). […] Specimens were analyzed in duplicate and a standard curve was derived from known concentrations of IgE. Plates were read using an automated microplate reader (Model ELX800) (Bio-Tek Instruments, Inc., Winooski, Vt.), with a 450-nm measurement filter. […]

[2] = test system: IgE production by stimulated PBMC from asthmatic subjects; assay: IgE production in vitro by anti-CD40 mAb + rhIL-4 stimulated PBMC from asthmatic subjects (IgE ELISA of supernatants); format: cell-based, human; settings: 10 day culture; for IgE: anti-CD40 mAb 1 ug/ml + rhIL-4 200 U/ml, ± SE, 5 asthmatic subjects; for inhibition at 0.1 µg/mL / inhibition at 1 µg/mL / inhibition at 10 µg/mL: Homo sapiens, PBMC, 240 h, versus anti-CD40 + rhIL-4 without treatment
Protocol: as §1
Studies of IgE responses induced in vitro were carried out according to the method of Sampson and Buckley in J. Immunol 1981, 127: 829-834. Briefly, PBMC (1.5×10^6 in 1 ml) were cultured +anti-CD40 mAb (1 ug/ml) (BD Pharmingen, San Diego, Calif.), ± recombinant human interleukin-4 (rhIL-4) (200 U/ml) (Genzyme Corp., Boston, Mass.), in the presence or absence of varying concentrations of either minocycline (Lederle Parenterals Inc., Carolina, Puerto Rico) or doxycycline (American Pharmaceutical Partner Inc., Schaumburg, Ill.), 0.1, 1.0, 10 ug/ml) for 0, 3, and 10 days at 37° C. in complete medium in a humidified 4% CO2 atmosphere. Cell viability was >98%, as judged by trypan blue exclusion, on day 10.
Antibiotics were reconstituted in sterile dH2O, according to manufacturer's recommendations. Complete medium contained RPMI-1640 (Fisher Scientific) and was supplemented with N-2-hydroxyethylpiperazine-N′-2-ethanesulfonic acid buffer (HEPES) (25 mM) (Fisher Scientific), penicillin (100 U/ml) (GIBCO/BRL), streptomycin (100 ug/ml) (Eli Lilly and Co., Indianapolis, Ind.), L-glutamine (2 mM) (GIBCO/BRL), and 10% Fetal Calf Serum (FCS) (GIB CO/BRL). The concentration of rhIL-4 in culture was within 1 bog of physiologic relevance (<100 U/ml), according to bioassay data provided by supplier.
For the in vitro quantitative determination of IgE content in cell culture supernatants, solid phase sandwich enzyme linked immunosorbent assays (ELISAs) were performed using IgE ELISA Test Kits (Abexon Trend, Ramsey, Minn.). All ELISAs were performed according to the manufacturer's recommended procedure. Specimens were analyzed in duplicate and a standard curve was derived from known concentrations of IgE. Plates were read using an automated microplate reader (Model ELX800) (Bio-Tek Instruments, Inc., Winooski, Vt.), with a 450-nm measurement filter. Optical densities were converted to IU/ml and/or ng/ml. (1 IU=2.4 ng/IgE protein).

[3] = test system: rheumatoid arthritis (RA) patients; settings: mild and moderate RA patients; cited from earlier work

| Structure (SMILES) | effect on IgE responses of PBMC of non asthmatic donors [1] | IgE ([2]; 0.1 ug/ml) | IgE ([2]; 1.0 ug/ml) | IgE ([2]; 10 ug/ml) | inhibition at 0.1 µg/mL ([2]; 0.1 ug/ml) | inhibition at 1 µg/mL ([2]; 1.0 ug/ml) | inhibition at 10 µg/mL ([2]; 10 ug/ml) | side effects [3] |
| --- | --- | --- | --- | --- | --- | --- | --- | --- |
| CN(C)c1ccc(O)c2c1C[C@H]1C[C@H]3[C@H](N(C)C)C(O)=C(C(N)=O)C(=O)[C@@]3(O)C(O)=C1C2=O [minocycline] | no effect | 16 ± 5 ng/mL | 18 ± 7 ng/mL | 5 ± 2 ng/mL | 43% | 36% | 83% | no side effects |
| C[C@H]1c2cccc(O)c2C(=O)C2=C(O)[C@]3(O)C(=O)C(C(N)=O)=C(O)[C@@H](N(C)C)[C@@H]3[C@@H](O)[C@@H]21 [doxycycline] | no effect | 20 ± 9 ng/mL | 14 ± 7 ng/mL | 5 ± 2 ng/mL | 29% | 50% | 83% |  |
